In US20160282364A1, “ASSAY FOR INSULIN-DEGRADING ENZYME (IDE) INHIBITORS” (PRESIDENT AND FELLOWS OF HARVARD COLLEGE, priority 2013, published 2016):
“Also recorded” adds a separate entry of the source.

What was measured:
[1] = molecular target: IDE (Homo sapiens, UniProt P14735); experiment: Protease assay with fluorogenic peptide substrate Mca-[…](Dnp)-OH (IDE species not given); format: biochemical; parameters: The proteases IDE42-1019, recombinant human IDE42-1019 (R&D Systems); conditions: IDE
IDE, sequence (P14735 42-1019): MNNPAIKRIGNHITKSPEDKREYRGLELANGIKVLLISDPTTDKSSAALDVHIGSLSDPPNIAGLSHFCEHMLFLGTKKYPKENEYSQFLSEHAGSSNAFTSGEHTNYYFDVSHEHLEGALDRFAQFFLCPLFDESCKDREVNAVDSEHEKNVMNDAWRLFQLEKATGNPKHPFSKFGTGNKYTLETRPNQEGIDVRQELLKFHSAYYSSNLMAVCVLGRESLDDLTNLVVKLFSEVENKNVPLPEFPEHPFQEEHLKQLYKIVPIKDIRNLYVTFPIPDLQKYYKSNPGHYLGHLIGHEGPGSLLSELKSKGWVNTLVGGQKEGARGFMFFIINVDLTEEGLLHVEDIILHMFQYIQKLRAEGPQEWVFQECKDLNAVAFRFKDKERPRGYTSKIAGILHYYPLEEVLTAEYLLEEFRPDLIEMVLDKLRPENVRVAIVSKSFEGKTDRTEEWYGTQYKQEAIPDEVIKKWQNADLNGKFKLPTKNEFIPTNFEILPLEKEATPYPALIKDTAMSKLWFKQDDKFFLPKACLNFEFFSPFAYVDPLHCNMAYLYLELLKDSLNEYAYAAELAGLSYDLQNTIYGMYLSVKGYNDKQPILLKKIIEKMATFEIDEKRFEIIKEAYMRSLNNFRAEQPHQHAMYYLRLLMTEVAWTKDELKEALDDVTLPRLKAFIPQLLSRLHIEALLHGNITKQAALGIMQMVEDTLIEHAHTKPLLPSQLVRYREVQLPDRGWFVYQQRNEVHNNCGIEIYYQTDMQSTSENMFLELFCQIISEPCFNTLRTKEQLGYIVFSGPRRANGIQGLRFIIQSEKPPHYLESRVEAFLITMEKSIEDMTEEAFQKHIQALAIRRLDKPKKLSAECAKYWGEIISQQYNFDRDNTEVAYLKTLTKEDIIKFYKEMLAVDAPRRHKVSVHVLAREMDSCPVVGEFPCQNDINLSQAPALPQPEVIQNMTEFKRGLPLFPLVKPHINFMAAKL
Description: All data points and error bars represent mean±SEM. Significance tests were performed using two-tail Student's t-test, and significance levels shown in the figures are p<0.05 (*) or p<0.01 (**) versus the vehicle-only control group. The in vitro selection of the DNA-templated macrocycle libraryl^16,17 used 20 μg His6-tagged mouse IDE immobilized on cobalt magnetic beads (Dynabeads, Invitrogen). IDE proteolytic activity was assayed with fluorogenic peptide Mca-[…](Dnp)-OH (R&D). IDE inhibition was confirmed using an anti-insulin antibody time-resolved FRET assay (Cysbio), and using an LCMS assay for CGRP cleavage fragments CGRP1-17 and CGRP18-37 in plasma^18. […] Protease assays with fluorogenic peptide substrates. […] (R&D). All assay data points were obtained in duplicate.

[2] = tested on: mice; experiment: Blood pressure and heart rate in mouse CGRP model; format: in vivo
Description: CGRP is a potent microvascular vasodilator widely expressed in the central and peripheral nervous systems of vertebrates. Administration of CGRP resulting in supraphysiological plasma levels of CGRP results in temporary vasodilation, hypotension, and an increased heart rate.
Nine mice received 250 ng CGRP intravenously (t=0). […] The other five received a control injection of vehicle only.
In addition,the lower panel of FIG. 19 demonstates that the increase in heart rate observed initially after CGRP administration is similar in both groups, but that the heart rate remains […] and the heart change rate is decreased in 6bK-administered mice as compared to controls.

[3] = molecular target: T1, hIDE WT (Homo sapiens, UniProt P14735); experiment: Small molecule-enzyme mutant complementation study, wild type; format: biochemical
T1 construct: The reported N-His6-tagged human IDE42-1019 construct; made in house; host or cells: E. coli Rosetta 2 (DE3) pLysS
T1 sequence (P14735 42-1019): as above
Description: Protease assays with fluorogenic peptide substrates. […] All assay data points were obtained in duplicate.
Site-directed mutagenesis, expression, and purification of human IDE. The reported N-His6-tagged human IDE42-1019 construct was introduced in the expression plasmid pTrcHis-A (Invitrogen) using primers for uracil-specific excision reactions (USER) by Taq (NEB) and Pfu polymerases (PfuTurbo CX®, Agilent). The IDE gene was amplified with the primers 5′-[…]-dU-[…] and 5′-[…] G-dU-[…] (underlined sequences represent overhangs, and italics highlight the PCR priming sequence). Similarly, the pTrcHis-A vector was amplified for USER cloning with the primers 5′-[…] TGA-dU-[…] CCC and 5′-[…]-dU-[…]. Mutant IDE constructs were generated by amplifying the full vector construct with USER cloning primers introducing a mutant overhang (Table 5).
All PCR products were purified on microcentrifuge membrane columns (MinElute®, Qiagen) and quantified by UV absorbance (NanoDrop). Each fragment (0.2 pmol) was combined in a 10 μL reaction mixture containing 20 units DpnI (NEB), 0.75 units of USER mix (Endonuclease VIII and Uracil-DNA Glycosylase, NEB), 20 mM Tris-acetate, 50 mM potassium acetate, 10 mM magnesium acetate, 1 mM dithiothreitol at pH 7.9 (1× NEBuffer 4). The reactions were incubated at 37° C. for 45 min, followed by heating to 80° C. and slow cooling to 30° C. (0.2° C./s). The hybridized constructs were directly used for heat-shock transformation of chemically competent NEB turbo E. coli cells according to the manufacturer's instructions. Transformants were selected on carbenicillin LB agar, and isolated colonies were cultured overnight in 2 mL LB.
The plasmid was extracted using a microcentrifuge membrane column kit (Miniprep®, Qiagen), and the sequence of genes and vector junctions were confirmed by Sanger sequencing (Table 6). The plasmid constructs were transformed by heat-shock into chemically-competent expression strain Rosetta 2 (DE3) pLysS E. coli cells (EMD Millipore), and selected on carbenicillin/chloramphenicol LB agar. Cells transformed with IDE pTrcHis A constructs were cultured overnight at 37° C. in 2 XYT media (31 g in 1 L) containing 100 μg/mL ampicillin and 34 μg/mL chloramphenicol. Expression of His6-tagged IDE proteins was induced when the culture measured OD600 ˜0.6 by addition of isopropyl-β-D-1-thiogalactopyranoside (IPTG) to 1 mM final concentration, incubated overnight at 37° C., followed by centrifugation at 10,000 g for 30 min at 4° C.
Recombinant His6-tagged proteins were purified by Ni(II)-affinity chromatography (IMAC sepharose beads, GE Healthcare®) according to the manufacturer's instructions. The cell pellets were resuspended in pH 8.0 buffer containing 50 mM phosphate, 300 mM NaCl, 10 mM imidazole, 1% Triton X-100 and 1 mM tris(2-carboxyethyl)phosphine hydrochloride (TCEP), and were lysed by probe sonication for 4 min at 4° C., followed by clearing of cell debris by centrifugation at 10,000 g for 25 min at 4° C. The supernatant was incubated with Ni(II)-doped IMAC resin (2 mL) for 3 h at 4° C. The resin was washed twice with the cell resuspension/lysis buffer, and three times with pH 8.0 buffer containing 50 mM phosphate, 300 mM NaCl,50 mM imidazole and 1 mM TCEP. Elution was performed in 2 mL aliquots by raising the imidazole concentration to 250 mM and subsequently to 500 mM in the previous buffer. The fractions were combined and the buffer was exchanged to the recommended IDE buffer (R&D) using spin columns with 100 KDa molecular weight cut off membranes (Millipore). Protein yields were typically ˜10 μg/L, and >90% purity based on gel electrophoresis analysis (Coomassie stained).

SMILES	IC50 [1] [nM]	return of blood pressure to baseline / duration of CGRP-induced hypotension ([2]; 1 mg 6bK i.p. 30 min before 250 ng CGRP i.v.)	baseline blood pressure ([2]; mice, 1 mg 6bK i.p., vs vehicle)	baseline heart rate ([2]; mice, 1 mg 6bK, vs control)	IC50 shift ([3]; batch 1 (reference)) [fold]	IC50 shift ([3]; batch 2 (reference)) [fold]	IC50 shift ([3]; batch 3 (reference)) [fold]
NCCCC[C@@H]1NC(=O)/C=C/C(=O)N[C@H](C(N)=O)CCCCNC(=O)[C@@H](Cc2ccc(C(=O)c3ccccc3)cc2)NC(=O)[C@H](CC2CCCCC2)NC1=O [Compound 6bK]	50	slower kinetics; also recorded: increases the duration	reduced; also recorded: lowered	reduced	–	–	–
NC(=O)CCC1NC(=O)C=CC(=O)NC(C(N)=O)CCCCNC(=O)C(Cc2ccc(C(=O)c3ccccc3)cc2)NC(=O)C(CC2CCCCC2)NC1=O (stereo not shown) [Compound 6b]	–	–	–	–	1.0	1.0	1.0
